According to ChEMBL document CHEMBL3217737, “Discovery of a highly selective FLT3 kinase inhibitor from phenotypic cell viability profiling” (Medchemcomm, 2013):
Activity calls are given as the source filed them. The calls are words filed in the database; no cut-off is given here.

Tests used:
MV4-11 [1] = assay: Induction of apoptosis in human MV4-11 cells assessed as increase in cleaved caspase-3 level at 0.1 to 10 uM after 12 hrs by Western blot method; format: functional, cell-based
[2] = target: Mast/stem cell growth factor receptor Kit (Homo sapiens) (UniProt P10721); assay: Inhibition of c-KIT (unknown origin) at 10 uM assessed as residual enzyme activity
[3] = target: Receptor-type tyrosine-protein kinase FLT3 (Homo sapiens) (UniProt P36888); assay: Inhibition of FLT3 phosphorylation in human MV4-11 cells after 4 hrs by Western blot method; format: cell-based
Receptor-type tyrosine-protein kinase FLT3 (Homo sapiens), sequence (P36888 whole entry): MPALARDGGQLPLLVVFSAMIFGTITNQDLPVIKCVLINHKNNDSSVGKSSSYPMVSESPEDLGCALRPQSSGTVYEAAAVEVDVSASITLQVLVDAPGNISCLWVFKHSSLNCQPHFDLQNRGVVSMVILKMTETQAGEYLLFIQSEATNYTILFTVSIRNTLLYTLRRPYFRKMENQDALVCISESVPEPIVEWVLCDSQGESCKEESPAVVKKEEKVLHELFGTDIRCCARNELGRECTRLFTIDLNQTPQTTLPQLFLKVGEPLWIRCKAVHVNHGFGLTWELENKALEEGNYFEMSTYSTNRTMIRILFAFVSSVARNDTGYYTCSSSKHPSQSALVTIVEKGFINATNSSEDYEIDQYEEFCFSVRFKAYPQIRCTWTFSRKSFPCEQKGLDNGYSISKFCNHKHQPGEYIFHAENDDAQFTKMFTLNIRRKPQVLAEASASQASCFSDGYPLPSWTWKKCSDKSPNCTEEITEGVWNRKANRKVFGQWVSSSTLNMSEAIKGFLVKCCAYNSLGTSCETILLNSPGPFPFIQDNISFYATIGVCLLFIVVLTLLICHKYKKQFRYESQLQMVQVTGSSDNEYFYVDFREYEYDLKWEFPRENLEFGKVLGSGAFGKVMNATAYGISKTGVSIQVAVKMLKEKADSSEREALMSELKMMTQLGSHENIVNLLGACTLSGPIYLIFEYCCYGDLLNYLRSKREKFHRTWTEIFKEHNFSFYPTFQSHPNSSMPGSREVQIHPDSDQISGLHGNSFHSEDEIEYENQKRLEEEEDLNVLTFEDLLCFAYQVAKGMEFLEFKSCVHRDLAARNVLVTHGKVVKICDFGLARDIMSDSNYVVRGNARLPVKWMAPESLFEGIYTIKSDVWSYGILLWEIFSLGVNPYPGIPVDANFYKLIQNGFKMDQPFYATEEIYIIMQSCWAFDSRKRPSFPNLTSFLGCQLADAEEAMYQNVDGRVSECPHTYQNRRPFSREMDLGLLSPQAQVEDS

[4] = target: Serine/threonine-protein kinase PLK1 (Homo sapiens) (UniProt P53350); assay: Inhibition of PLK1 (unknown origin) at 10 uM assessed as residual enzyme activity
Serine/threonine-protein kinase PLK1 (Homo sapiens), sequence (P53350 whole entry): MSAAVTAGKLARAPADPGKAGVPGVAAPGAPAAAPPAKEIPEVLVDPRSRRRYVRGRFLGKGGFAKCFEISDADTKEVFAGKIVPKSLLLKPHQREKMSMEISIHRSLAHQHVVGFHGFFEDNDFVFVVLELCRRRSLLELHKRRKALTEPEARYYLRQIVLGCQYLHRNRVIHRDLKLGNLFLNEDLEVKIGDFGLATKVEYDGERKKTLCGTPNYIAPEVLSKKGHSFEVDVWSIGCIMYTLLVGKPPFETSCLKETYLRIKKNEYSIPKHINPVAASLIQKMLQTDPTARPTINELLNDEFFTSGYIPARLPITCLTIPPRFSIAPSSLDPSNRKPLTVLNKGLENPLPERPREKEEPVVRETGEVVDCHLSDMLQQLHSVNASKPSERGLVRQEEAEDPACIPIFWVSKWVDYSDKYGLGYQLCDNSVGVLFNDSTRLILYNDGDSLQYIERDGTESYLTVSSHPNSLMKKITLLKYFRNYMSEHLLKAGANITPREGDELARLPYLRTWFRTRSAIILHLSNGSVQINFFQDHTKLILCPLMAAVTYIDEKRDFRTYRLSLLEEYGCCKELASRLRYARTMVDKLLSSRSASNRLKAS

MV4-11 [5] = assay: Induction of apoptosis in human MV4-11 cells assessed as PARP cleavage at 0.1 to 10 uM after 12 hrs by Western blot method; format: functional, cell-based
[6] = target: CDK1/Cyclin A (Homo sapiens) (UniProt P06493+P20248); assay: Inhibition of CDK1/Cyclin A (unknown origin) at 10 uM assessed as residual enzyme activity; format: protein-complex assay
CDK1/Cyclin A (Homo sapiens), sequence (P06493 whole entry, looked up): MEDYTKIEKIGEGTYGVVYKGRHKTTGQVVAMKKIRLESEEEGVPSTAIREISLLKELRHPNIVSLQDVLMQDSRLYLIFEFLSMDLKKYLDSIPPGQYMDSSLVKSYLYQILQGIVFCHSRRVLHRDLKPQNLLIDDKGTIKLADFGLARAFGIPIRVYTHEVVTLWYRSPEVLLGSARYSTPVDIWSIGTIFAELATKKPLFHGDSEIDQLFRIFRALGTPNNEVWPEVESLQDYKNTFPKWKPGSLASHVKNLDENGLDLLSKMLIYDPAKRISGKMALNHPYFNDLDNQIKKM
CDK1/Cyclin A (Homo sapiens), sequence (P20248 whole entry, looked up): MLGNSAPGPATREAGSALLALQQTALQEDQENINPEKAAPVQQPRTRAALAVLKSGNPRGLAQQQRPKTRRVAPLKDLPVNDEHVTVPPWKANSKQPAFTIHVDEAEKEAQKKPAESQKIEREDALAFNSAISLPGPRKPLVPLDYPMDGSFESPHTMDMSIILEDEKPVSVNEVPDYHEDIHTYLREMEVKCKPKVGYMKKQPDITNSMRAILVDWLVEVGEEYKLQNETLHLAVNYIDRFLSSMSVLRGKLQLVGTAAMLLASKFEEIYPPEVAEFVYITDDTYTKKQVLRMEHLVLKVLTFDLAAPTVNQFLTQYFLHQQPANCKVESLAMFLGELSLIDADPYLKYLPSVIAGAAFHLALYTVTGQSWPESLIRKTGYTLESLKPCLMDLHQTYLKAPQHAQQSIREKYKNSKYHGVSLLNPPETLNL

[7] = target: Platelet-derived growth factor receptor alpha (Homo sapiens) (UniProt P16234); assay: Inhibition of PDGFRalpha (unknown origin) at 10 uM assessed as residual enzyme activity
Platelet-derived growth factor receptor alpha (Homo sapiens), sequence (P16234 whole entry): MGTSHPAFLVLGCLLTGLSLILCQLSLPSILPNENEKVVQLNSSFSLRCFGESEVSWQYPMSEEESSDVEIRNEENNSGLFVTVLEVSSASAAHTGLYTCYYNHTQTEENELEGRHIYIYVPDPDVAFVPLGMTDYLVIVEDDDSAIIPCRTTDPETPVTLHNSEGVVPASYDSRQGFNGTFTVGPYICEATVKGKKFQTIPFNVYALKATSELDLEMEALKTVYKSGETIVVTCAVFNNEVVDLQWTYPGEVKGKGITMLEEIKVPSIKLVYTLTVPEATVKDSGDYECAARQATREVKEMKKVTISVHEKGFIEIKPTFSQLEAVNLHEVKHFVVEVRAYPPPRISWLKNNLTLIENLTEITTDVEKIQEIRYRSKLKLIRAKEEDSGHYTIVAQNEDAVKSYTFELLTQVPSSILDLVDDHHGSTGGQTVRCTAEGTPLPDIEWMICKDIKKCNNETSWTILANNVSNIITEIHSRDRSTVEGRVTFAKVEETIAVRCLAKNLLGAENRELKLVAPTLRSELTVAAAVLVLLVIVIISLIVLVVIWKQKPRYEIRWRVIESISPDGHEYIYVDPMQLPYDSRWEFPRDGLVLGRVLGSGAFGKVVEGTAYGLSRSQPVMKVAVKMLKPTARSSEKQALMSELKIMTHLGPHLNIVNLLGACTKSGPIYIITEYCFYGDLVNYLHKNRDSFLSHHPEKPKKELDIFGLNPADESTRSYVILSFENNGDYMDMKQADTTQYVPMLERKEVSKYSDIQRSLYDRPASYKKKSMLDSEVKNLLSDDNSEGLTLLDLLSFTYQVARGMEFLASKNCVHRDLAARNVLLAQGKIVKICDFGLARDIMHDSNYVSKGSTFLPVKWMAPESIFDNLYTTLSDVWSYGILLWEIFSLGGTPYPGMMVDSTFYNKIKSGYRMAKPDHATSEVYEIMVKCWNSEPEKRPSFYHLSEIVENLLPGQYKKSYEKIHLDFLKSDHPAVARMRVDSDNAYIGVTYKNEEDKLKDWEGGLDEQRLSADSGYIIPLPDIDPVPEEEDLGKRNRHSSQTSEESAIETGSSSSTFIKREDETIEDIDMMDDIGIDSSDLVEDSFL

[8] = target: Mitogen-activated protein kinase 1 (Homo sapiens) (UniProt P28482); assay: Inhibition of ERK2 (unknown origin) at 10 uM assessed as residual enzyme activity
[9] = target: Tyrosine-protein kinase ABL1 (Homo sapiens) (UniProt P00519); assay: Inhibition of ABL1 (unknown origin) at 10 uM assessed as residual enzyme activity
Tyrosine-protein kinase ABL1 (Homo sapiens), sequence (P00519 whole entry): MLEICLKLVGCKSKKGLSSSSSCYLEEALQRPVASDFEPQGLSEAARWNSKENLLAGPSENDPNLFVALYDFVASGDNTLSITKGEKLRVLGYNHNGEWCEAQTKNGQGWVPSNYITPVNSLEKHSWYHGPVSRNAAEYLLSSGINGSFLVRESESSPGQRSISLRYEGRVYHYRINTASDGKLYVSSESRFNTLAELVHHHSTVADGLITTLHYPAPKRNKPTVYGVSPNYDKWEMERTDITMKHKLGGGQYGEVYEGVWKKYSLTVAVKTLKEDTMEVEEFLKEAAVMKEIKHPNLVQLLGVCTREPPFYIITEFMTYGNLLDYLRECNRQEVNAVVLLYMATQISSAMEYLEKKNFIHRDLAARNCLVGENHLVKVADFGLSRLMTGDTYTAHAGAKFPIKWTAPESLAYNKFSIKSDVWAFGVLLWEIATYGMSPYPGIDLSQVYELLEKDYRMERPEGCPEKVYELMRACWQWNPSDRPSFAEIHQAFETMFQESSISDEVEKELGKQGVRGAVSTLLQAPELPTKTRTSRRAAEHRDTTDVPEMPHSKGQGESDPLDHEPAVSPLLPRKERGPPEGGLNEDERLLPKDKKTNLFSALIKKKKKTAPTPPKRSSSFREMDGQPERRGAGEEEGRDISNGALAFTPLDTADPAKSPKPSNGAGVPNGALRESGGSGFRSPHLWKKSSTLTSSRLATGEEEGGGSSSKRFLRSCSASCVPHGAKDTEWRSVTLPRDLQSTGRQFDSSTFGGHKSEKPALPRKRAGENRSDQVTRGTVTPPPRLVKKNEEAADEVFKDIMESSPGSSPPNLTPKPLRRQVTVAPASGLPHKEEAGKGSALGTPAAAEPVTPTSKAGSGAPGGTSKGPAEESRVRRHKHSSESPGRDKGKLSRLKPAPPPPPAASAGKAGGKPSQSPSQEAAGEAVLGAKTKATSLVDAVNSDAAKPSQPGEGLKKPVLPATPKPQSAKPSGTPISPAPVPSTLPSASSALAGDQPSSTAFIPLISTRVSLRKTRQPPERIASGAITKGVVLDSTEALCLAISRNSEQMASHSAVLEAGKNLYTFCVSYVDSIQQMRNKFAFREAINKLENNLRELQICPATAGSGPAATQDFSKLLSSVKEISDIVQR

[10] = target: Vascular endothelial growth factor receptor 2 (Homo sapiens) (UniProt P35968); assay: Inhibition of VEGFR2 (unknown origin) at 10 uM assessed as residual enzyme activity
[11] = target: Macrophage colony-stimulating factor 1 receptor (Homo sapiens) (UniProt P07333); assay: Inhibition of FMS (unknown origin) at 10 uM assessed as residual enzyme activity
[12] = target: Receptor-type tyrosine-protein kinase FLT3 (Homo sapiens) (UniProt P36888); assay: Inhibition of FLT3 (unknown origin) at 10 uM assessed as residual enzyme activity
Homo sapiens = species: Homo sapiens; assay: Inhibition of PKA (unknown origin) at 10 uM assessed as residual enzyme activity
[13] = target: Receptor-type tyrosine-protein kinase FLT3 (Homo sapiens) (UniProt P36888); assay: Inhibition of FLT3 in human MV4-11 cells assessed as reduction in ERK phosphorylation after 12 hrs by Western blot method; format: cell-based
HL-60 = assay: Inhibition of STAT5 phosphorylation in human HL60 cells at 0.1 to 10 uM after 12 hrs by Western blot method; format: cell-based
[14] = target: Protein kinase C alpha type (Homo sapiens) (UniProt P17252); assay: Inhibition of PKCalpha (unknown origin) at 10 uM assessed as residual enzyme activity
[15] = Cytotoxicity against mouse NIH/3T3 cells assessed as cell viability at 1 uM after 24 hrs by WST1 assay; format: cell-based, NIH3T3; conditions: read-out: Activity
[16] = target: Mitogen-activated protein kinase 14 (Homo sapiens) (UniProt Q16539); assay: Inhibition of P38alpha (unknown origin) at 10 uM assessed as residual enzyme activity
Mitogen-activated protein kinase 14 (Homo sapiens), sequence (Q16539 whole entry): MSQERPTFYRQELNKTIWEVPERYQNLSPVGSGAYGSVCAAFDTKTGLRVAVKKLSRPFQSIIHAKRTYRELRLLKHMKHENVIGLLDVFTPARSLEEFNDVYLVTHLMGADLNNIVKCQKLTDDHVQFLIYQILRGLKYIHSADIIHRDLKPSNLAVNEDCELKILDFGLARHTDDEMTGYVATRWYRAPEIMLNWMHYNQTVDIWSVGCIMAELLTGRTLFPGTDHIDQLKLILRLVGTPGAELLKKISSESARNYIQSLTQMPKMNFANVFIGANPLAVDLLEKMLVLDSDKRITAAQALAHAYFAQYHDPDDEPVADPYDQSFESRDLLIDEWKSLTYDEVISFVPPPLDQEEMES

MV4-11 [17] = assay: Cytotoxicity against human MV4-11 cells assessed as cell growth inhibition after 24 hrs by WST1 assay; format: functional, cell-based
MV4-11 [18] = assay: Cytotoxicity against human MV4-11 cells assessed as cell viability at 1 uM after 24 hrs by WST1 assay; format: functional; conditions: MV4-11, 24 h, read-out: Activity

- Activity [2]: 99.2%
- inhibition [3]: Active
- Activity [4]: 108%
- Activity [6]: 97.4%
- Activity [7]: 93.8%
- Activity [8]: 94%
- Activity [9]: 88.9%
- Activity [10]: 98.6%
- Activity [11]: 102%
- Activity [12]: 9.5%
- Activity (Homo sapiens): 93%
- inhibition [13]: Dose-dependent effect
- Activity [14]: 84.5%
- Activity [16]: 110%
Compound: COc1ccc(-c2n[nH]c3ncc(-c4ccc(Cl)cc4N)cc23)cc1
- Activity (MV4-11 [1]): Dose-dependent effect
- Activity (MV4-11 [5]): Active
- inhibition (HL-60): inactive
- viability at 24 h, 1 µM [15]: 106%
- growth inhibition (GI) (MV4-11 [17]): Dose-dependent effect
- IC50 (MV4-11 [17]; MV4-11, 24 h): 592 nM
- viability at 1 µM (MV4-11 [18]): 30%
